Values joined by “and” are separate entries in the source; they are usually repeats but may differ in a detail not shown here. Equal entries are not always repeated.

In the assay the target is T1, mTOR (Homo sapiens, UniProt P42345).
T1 construct: capturing of endogenously expressed target proteins from cell extracts by a bead-immobilized capturing ligand; endogenous in cells; host or cells: HuT-78 cells (ECACC 88041901), cell lysate
The experiment in a line: mTOR kinobeads assay (competition-binding assay). Particulars: HuT-78 cell extract, endogenously expressed mTOR, bead-immobilized capturing ligand; mean of multiple experiments; read-out: mean pIC50, affinity for mTOR (converted). On the procedure: The affinity of test compounds for mTOR was determined in the mTOR kinobeads assay. This is a competition-binding assay based on the capturing of endogenously expressed target proteins from cell extracts by a bead-immobilized capturing ligand in presence of the test compound.
HuT-78 cells (European Collection of Authenticated Cell Cultures, 88041901) were cultured according to vendor's instructions. Frozen cell pellets were homogenized in 3× pellet volumes lysis buffer (50 mM Tris-HCl, 0.4% (v/v) Igepal-CA630, 5% glycerol, 150 mM NaCl, 1.5 mMMgCl2, 25 mM NaF, 1 mM sodium vanadate, 1 mM DTT, pH 7.5, supplemented with EDTA-free protease inhibitor tablet (Roche)). The sample was dispersed using a Dounce homogenizer, kept rotating for 30 min at 4° C., and centrifuged for 10 min at 20 000 g at 4° C. The supernatant was centrifuged again for 1 h at 145 000 g. The protein concentration was determined by Bradford assay (BioRad), aliquots were snap frozen in liquid nitrogen and stored at −80° C.
The capturing matrices were generated by derivatizing N-hydroxysuccinimide (NHS) activated Sepharose 4 beads (GE Healthcare) with the functionalized ligands Compound A and Compound C at a ligand density of 5 mM. Remaining NHS-groups were blocked with ethanolamine.
For the mTOR kinobeads assay the matrices were combined in a 1:1 ratio and equilibrated in DP buffer (50 mM Tris-HCl (pH 7.5), 0.4% (v/v) Igepal-CA630, 5% (v/v) glycerol, 150 mM NaCl, 1.5 mM MgCl2, 25 mM NaF, 1 mM Na3VO4, 1 mM dithiothreitol). All steps of the mTOR kinobeads assay were performed at 4° C. or on ice. The cell lysate was diluted with DP buffer to a final concentration of 5 mg/ml and a final detergent concentration of 0.4% (v/v) Igepal-CA630. For the assay 250 μg cell lysate and 2.5 μl capturing matrix per well (final assay volume: 75 μl) were incubated in the presence of test compounds in a 384-well filter plate (MultiScreenHTS HV Filter Plate, 0.45 μm, MZHVNOW50, Merck Millipore). Each plate contained 16 positive (100 μM Compound B) and 16 negative (2% v/v DMSO) control wells. Compounds were tested in a concentration-response applying 1:3 or 1:4 dilution steps for in total 11 data points. DMSO concentration was 2% (v/v). After 2 h incubation on an overhead shaker (Roto-Shake Genie, Scientific Industries Inc.) at 4° C. the non-bound fraction was removed by washing the beads with DP buffer. Proteins retained on the beads were eluted in SDS sample buffer (200 mM Tris (pH 7.4), 250 mM Trizma Base, 4% (w/v) SDS, 20% (v/v) glycerol, 0.01% (w/v) bromophenol blue, 50 mM dithiothreitol) into a collection plate (384 well polypropylene microplate, V-shape, Greiner, 781 280). Eluates were spotted on nitrocellulose membranes (400 nl per spot) using an automated pin-tool liquid transfer (Biomek FX, Beckman). After drying, the membranes were rehydrated in 20% (v/v) ethanol and blocked by incubation with Odyssey blocking buffer (LICOR, 927-40000) for 1 h at room temperature. Blocked membranes were incubated overnight at 25° C. with Odyssey blocking buffer supplemented with a specific anti-mTOR antibody (Cell Signaling, 2972; 1:500) and 0.4% TWEEN-20. Then the membranes were washed in PBST buffer and incubated for 60 minutes at room temperature with the detection antibody (IRDye™ labelled antibody from LI-COR) diluted in Odyssey blocking buffer (LICOR 927-40000) containing 0.2% TWEEN-20. Then the membranes were washed with PBST and finally rinsed twice with PBS buffer to remove residual Tween-20. The membranes were then scanned with the Odyssey® Infrared Imaging System (LI-COR Biosciences). Fluorescence signals were recorded and analyzed according to the instructions of the manufacturer. Concentration response curves were computed with the software Activity Base. All data were normalized to the mean of 16 high (negative control) and 16 low (positive control) control wells on each plate. […]
Take `CC[C@H]1COCCN1c1cc(C(C)(C)S(=O)(=O)C2CC2)cc(-c2ccc3[nH]c(CNC)cc3n2)n1` [Example 9, (S)-1-(5-(4-(2-(cyclopropylsulfonyl)propan-2-yl)-6-(3-ethylmorpholino)pyridin-2-yl)-1H-pyrrolo[3,2-b]pyridin-2-yl)-N-methylmethanamine]: the IC50 is 2.51 to 316 nM.
`CC[C@H]1COCCN1c1cc(C(C)(C)S(C)(=O)=O)cc(-c2ccc3[nH]c(CN)cc3n2)n1` [Example 21, 1-(5-{6-[(3S)-3-ethylmorpholin-4-yl]-4-(2-methanesulfonylpropan-2-yl)pyridin-2-yl}-1H-pyrrolo[3,2-b]pyridin-2-yl)methanamine]: the IC50 is 2.51 to 31.6 nM and 2.51 to 316 nM.
Regarding `CC[C@H]1COCCN1c1cc(C2(S(C)(=O)=O)CCOCC2)cc(-c2ccc3[nH]c(CN)cc3n2)n1` [Example 23, 1-(5-{6-[(3S)-3-ethylmorpholin-4-yl]-4-(4-methanesulfonyloxan-4-yl)pyridin-2-yl}-1H-pyrrolo[3,2-b]pyridin-2-yl)methanamine], the IC50 is 2.51 to 31.6 nM and 2.51 to 316 nM.
Next, `CNCc1cc2nc(-c3cc(C4(S(C)(=O)=O)CCOCC4)cc(N4C5CCC4COC5)n3)ccc2[nH]1` [Example 40, ({5-[4-(4-methanesulfonyloxan-4-yl)-6-{3-oxa-8-azabicyclo[3.2.1]octan-8-yl}pyridin-2-yl]-1H-pyrrolo[3,2-b]pyridin-2-yl}methyl)(methyl)amine]: 2.51 to 316 nM; `CC[C@H]1COCCN1c1cc(CS(=O)(=O)N(C)C)cc(-c2ccc3[nH]c(CNC)cc3n2)n1` [Example 17, (S)-1-(2-(3-ethylmorpholino)-6-(2-((methylamino)methyl)-1H-pyrrolo[3,2-b]pyridin-5-yl)pyridin-4-yl)-N,N-dimethylmethanesulfonamide]: 2.51 to 31.6 nM and 2.51 to 316 nM.
Next, `CC[C@H]1COCCN1c1cc(CS(C)(=O)=O)cc(-c2ccc3[nH]c(CO)cc3n2)n1` [Example 34, (5-{6-[(3S)-3-ethylmorpholin-4-yl]-4-(methanesulfonylmethyl)pyridin-2-yl}-1H-pyrrolo[3,2-b]pyridin-2-yl)methanol]: 2.51 to 31.6 nM and 2.51 to 316 nM.
Next, `CC[C@H]1COCCN1c1cc(C2(S(=O)(=O)C3CC3)CC2)cc(-c2ccc3[nH]c(CNC)cc3n2)n1` [Example 11, (S)-1-(5-(4-(1-(cyclopropylsulfonyl)cyclopropyl)-6-(3-ethylmorpholino)pyridin-2-yl)-1H-pyrrolo[3,2-b]pyridin-2-yl)-N-methylmethanamine]: 2.51 to 316 nM; `CC[C@H]1COCCN1c1cc(C2(S(C)(=O)=O)CCOCC2)cc(-c2ccc3[nH]c(CO)cc3n2)n1` [Example 33, (5-{6-[(3S)-3-ethylmorpholin-4-yl]-4-(4-methanesulfonyloxan-4-yl)pyridin-2-yl}-1H-pyrrolo[3,2-b]pyridin-2-yl)methanol]: 2.51 to 31.6 nM and 2.51 to 316 nM.
In the case of `CNCc1cc2nc(-c3cc(C(C)(C)S(C)(=O)=O)cc(N4[C@@H]5CC[C@H]4COC5)n3)ccc2[nH]1` [Example 3, 1-(5-(6-((1R,5S)-3-oxa-8-azabicyclo[3.2.1]octan-8-yl)-4-(2-(methylsulfonyl)propan-2-yl)pyridin-2-yl)-1H-pyrrolo[3,2-b]pyridin-2-yl)-N-methylmethanamine], the IC50 is 2.51 to 316 nM.
For the compound `CC[C@H]1COCCN1c1cc(CS(=O)(=O)C2CC2)cc(-c2ccc3[nH]c(CNC)cc3n2)n1` [Example 10, (S)-1-(5-(4-((cyclopropylsulfonyl)methyl)-6-(3-ethylmorpholino)pyridin-2-yl)-1H-pyrrolo[3,2-b]pyridin-2-yl)-N-methylmethanamine], the IC50 was 2.51 to 31.6 nM and 2.51 to 316 nM.
Regarding `CNCc1cc2nc(-c3cc(CS(C)(=O)=O)cc(N4CC5CCC(C4)O5)n3)ccc2[nH]1` [Example 25, ({5-[4-(methanesulfonylmethyl)-6-{8-oxa-3-azabicyclo[3.2.1]octan-3-yl}pyridin-2-yl]-1H-pyrrolo[3,2-b]pyridin-2-yl}methyl)(methyl)amine], the IC50 was 2.51 to 31.6 nM and 2.51 to 316 nM.
Consider `CNCc1cc2nc(-c3cc(C(F)(F)S(C)(=O)=O)cc(N4CCOC[C@@H]4C)n3)ccc2[nH]1` [Example 12, (S)-1-(5-(4-(difluoro(methylsulfonyl)methyl)-6-(3-methylmorpholino)pyridin-2-yl)-1H-pyrrolo[3,2-b]pyridin-2-yl)-N-methylmethanamine], for which the IC50 is 2.51 to 316 nM.
In the case of `CC[C@H]1COCCN1c1cc(C2(S(C)(=O)=O)CC2)cc(-c2ccc3[nH]c(CNC)cc3n2)n1` [Example 19, [(5-{6-[(3S)-3-ethylmorpholin-4-yl]-4-(1-methanesulfonylcyclopropyl)pyridin-2-yl}-1H-pyrrolo[3,2-b]pyridin-2-yl)methyl](methyl)amine], the IC50 was 2.51 to 31.6 nM and 2.51 to 316 nM.
Next, `CCS(=O)(=O)C(C)(C)c1cc(-c2ccc3[nH]c(CNC)cc3n2)nc(N2CCOC[C@@H]2C)c1` [Example 7, (S)-1-(5-(4-(2-(ethylsulfonyl)propan-2-yl)-6-(3-methylmorpholino)pyridin-2-yl)-1H-pyrrolo[3,2-b]pyridin-2-yl)-N-methylmethanamine]: 2.51 to 316 nM; `CC[C@H]1COCCN1c1cc(C(C)(C)S(N)(=O)=O)cc(-c2ccc3[nH]c(CNC)cc3n2)n1` [Example 28, 2-{2-[(3S)-3-ethylmorpholin-4-yl]-6-{2-[(methylamino)methyl]-1H-pyrrolo[3,2-b]pyridin-5-yl}pyridin-4-yl}propane-2-sulfonamide]: 2.51 to 31.6 nM and 2.51 to 316 nM; `CNCc1cc2nc(-c3cc(C(C)(C)S(C)(=O)=O)cc(N4CC5CCC(C4)O5)n3)ccc2[nH]1` [Example 4, 1-(5-(6-(8-oxa-3-azabicyclo[3.2.1]octan-3-yl)-4-(2-(methylsulfonyl)propan-2-yl)pyridin-2-yl)-1H-pyrrolo[3,2-b]pyridin-2-yl)-N-methylmethanamine]: 2.51 to 31.6 nM and 2.51 to 316 nM.
For `CC[C@H]1COCCN1c1cc(C(C)(C)S(C)(=O)=O)cc(-c2ccc3[nH]c(CO)cc3n2)n1` [Example 32], the IC50 was 2.51 to 31.6 nM and 2.51 to 316 nM.
Next, `CC[C@H]1COCCN1c1cc(CS(=O)(=O)N(C)C)cc(-c2ccc3[nH]c(CO)cc3n2)n1` [Example 35, 1-{2-[(3S)-3-ethylmorpholin-4-yl]-6-[2-(hydroxymethyl)-1H-pyrrolo[3,2-b]pyridin-5-yl]pyridin-4-yl}-N,N-dimethylmethanesulfonamide]: 2.51 to 31.6 nM and 2.51 to 316 nM.
Turning to `CC[C@H]1COCCN1c1cc(CS(=O)(=O)NC)cc(-c2ccc3[nH]c(CNC)cc3n2)n1` [Example 30, 1-{2-[(3S)-3-ethylmorpholin-4-yl]-6-{2-[(methylamino)methyl]-1H-pyrrolo[3,2-b]pyridin-5-yl}pyridin-4-yl}-N-methylmethanesulfonamide], the IC50 was 2.51 to 31.6 nM and 2.51 to 316 nM.
Take `CC[C@H]1COCCN1c1cc(CS(C)(=O)=O)cc(-c2ccc3[nH]c(CNC)cc3n2)n1` [Example 13, (S)-1-(5-(6-(3-ethylmorpholino)-4-((methylsulfonyl)methyl)pyridin-2-yl)-1H-pyrrolo[3,2-b]pyridin-2-yl)-N-methylmethanamine]: the IC50 is 2.51 to 31.6 nM and 2.51 to 316 nM.
Next, `CNCc1cc2nc(-c3cc(C(C)(C)S(C)(=O)=O)cc(N4CCOC[C@@H]4C)n3)ccc2[nH]1` [Example 2, (S)—N-methyl-1-(5-(6-(3-methylmorpholino)-4-(2-(methylsulfonyl)propan-2-yl)pyridin-2-yl)-1H-pyrrolo[3,2-b]pyridin-2-yl)methanamine]: 2.51 to 31.6 nM and 2.51 to 316 nM.

The values above are taken from US11254671B2, “Chemical compounds” (GLAXOSMITHKLINE INTELLECTUAL PROPERTY DEVELOPMENT LIMITED, priority 2017, dated 2022).
